Measurements: patent US8436036B2, “Diaryl ethers” (Janssen R&D Ireland, priority 2009, dated 2013)

Columns and labels:
Cytotoxicity (Huh-7) = type: cell-based; settings: human, Huh-7 cells
Excerpt: The in vitro antiviral activity against HCV of the compounds of formula I can be tested in a cellular HCV replicon system based on Lohmann et al. (1999) Science 285:110-113, with the further modifications described by Krieger et al. (2001) Journal of Virology 75: 4614-4624 (incorporated herein by reference), which is further exemplified in the examples section. This model, while not a complete infection model for HCV, is widely accepted as the most robust and efficient model of autonomous HCV RNA replication currently available. It will be appreciated that it is important to distinguish between compounds that specifically interfere with HCV functions from those that exert cytotoxic or cytostatic effects in the HCV replicon model, and as a consequence cause a decrease in HCV RNA or linked reporter enzyme concentration. Assays are known in the field for the evaluation of cellular cytotoxicity based for example on the activity of mitochondrial enzymes using fluorogenic redox dyes such as resazurin. Furthermore, cellular counter screens exist for the evaluation of non-selective inhibition of linked reporter gene activity, such as firefly luciferase. Appropriate cell types can be equipped by stable transfection with a luciferase reporter gene whose expression is dependent on a constitutively active gene promoter, and such cells can be used as a counter-screen to eliminate non-selective inhibitors.

HCV replicon = HCV replicon assay (Huh-Luc cells, luciferase read-out); type: cell-based, HCV type Ib; settings: Hepatitis C virus, 72 h, three days incubation, luciferase activity
Excerpt: The compounds of formula (I) were examined for inhibitory activity in the HCV replicon. This cellular assay is based on a bicistronic expression construct, as described by Lohmann et al. (1999) Science vol. 285 pp. 110-113 with modifications described by Krieger et al. (2001) Journal of Virology 75: 4614-4624, in a multi-target screening strategy.
In essence, the method was as follows:
The assay utilized the stably transfected cell line Huh-7 luc/neo (hereafter referred to as Huh-Luc). This cell line harbors an RNA encoding a bicistronic expression construct comprising the wild type NS3-NS5B regions of HCV type Ib translated from an Internal Ribosome Entry Site (IRES) from encephalomyocarditis virus (EMCV), preceded by a reporter portion (FfL-luciferase), and a selectable marker portion (neo^R, neomycine phosphotransferase). The construct is flanked by 5′ and 3′ NTRs (non-translated regions) from HCV type Ib. Continued culture of the replicon cells in the presence of G418 (neo^R) is dependent on the replication of the HCV RNA. The stably transfected replicon cells that express HCV RNA, which replicates autonomously and to high levels, encoding inter alia luciferase, were used for screening the antiviral compounds.
The replicon cells were plated in 384 well plates in the presence of the test and control compounds which were added in various concentrations. Following an incubation of three days, HCV replication was measured by assaying luciferase activity (using standard luciferase assay substrates and reagents and a Perkin Elmer ViewLux™ ultraHTS microplate imager). Replicon cells in the control cultures have high luciferase expression in the absence of any inhibitor. The inhibitory activity of the compound on luciferase activity was monitored on the Huh-Luc cells, enabling a dose-response curve for each test compound. EC50 values were then calculated, which represent the amount of compound required to decrease the level of detected luciferase activity by 50%, or more specifically, to reduce the ability of the genetically linked HCV replicon RNA to replicate.

O=C(c1ccoc1)N1CCC[C@H]1c1nc(-c2cccc(Oc3ccc(-c4cnc([C@@H]5CCCN5C(=O)c5ccoc5)[nH]4)cc3)c2)c[nH]1 [Example 32]
CC50 (Cytotoxicity (Huh-7)): > 31.5 µM
EC50 (HCV replicon): 978 nM

O=C(c1ccc(F)cc1)N1CCC[C@H]1c1nc(-c2cccc(Oc3ccc(-c4cnc([C@@H]5CCCN5C(=O)c5ccc(F)cc5)[nH]4)cc3)c2)c[nH]1 [Example 34]
CC50 (Cytotoxicity (Huh-7)): > 31.5 µM
EC50 (HCV replicon): 4340 nM

O=C(C(O)c1ccccc1)N1CCC[C@H]1c1nc(-c2cccc(Oc3ccc(-c4cnc([C@@H]5CCCN5C(=O)C(O)c5ccccc5)[nH]4)cc3)c2)c[nH]1 (stereo partly drawn) [Example 10, 2-hydroxy-1-((2S)-2-(5-(4-(3-(2-((2S)-1-(2-hydroxy-2-phenylacetyl)-pyrrolidin-2-yl)-1H-imidazol-4-yl)phenoxy)phenyl)-1H-imidazol-2-yl)pyrrolidin-1-yl)-2-phenylethanone]
CC50 (Cytotoxicity (Huh-7)): 4.86 µM
EC50 (HCV replicon): < 0.5 nM

O=C(Cc1ccc2c(c1)OCO2)N1CCC[C@H]1c1nc(-c2cccc(Oc3ccc(-c4cnc([C@@H]5CCCN5C(=O)Cc5ccc6c(c5)OCO6)[nH]4)cc3)c2)c[nH]1 [Example 19]
CC50 (Cytotoxicity (Huh-7)): > 31.5 µM
EC50 (HCV replicon): 1070 nM

COC(=O)NC(C(=O)N1CCC[C@H]1c1nc(-c2ccc(Oc3ccc(OC)c(-c4cnc([C@@H]5CCCN5C(=O)C(NC(=O)OC)c5ccccc5)[nH]4)c3)cc2)c[nH]1)c1ccccc1 (stereo partly shown) [Example 46]
CC50 (Cytotoxicity (Huh-7)): > 98.4 µM
EC50 (HCV replicon): > 980 nM

COc1c(F)cc(CC(=O)N2CCC[C@H]2c2nc(-c3cccc(Oc4ccc(-c5cnc([C@@H]6CCCN6C(=O)Cc6cc(F)c(OC)c(F)c6)[nH]5)cc4)c3)c[nH]2)cc1F [Example 25]
CC50 (Cytotoxicity (Huh-7)): > 31.5 µM
EC50 (HCV replicon): 3390 nM

CN(C)CCC(=O)N1CCC[C@H]1c1nc(-c2cccc(Oc3ccc(-c4cnc([C@@H]5CCCN5C(=O)CCN(C)C)[nH]4)cc3)c2)c[nH]1 [Example 41]
CC50 (Cytotoxicity (Huh-7)): > 31.5 µM
EC50 (HCV replicon): 1240 nM

O=C(c1cccnc1)N1CCC[C@H]1c1nc(-c2cccc(Oc3ccc(-c4cnc([C@@H]5CCCN5C(=O)c5cccnc5)[nH]4)cc3)c2)c[nH]1 [Example 38]
CC50 (Cytotoxicity (Huh-7)): > 31.5 µM
EC50 (HCV replicon): 1270 nM

CN(C)[C@@H](C(=O)N1CCC[C@H]1c1ncc(-c2ccc(Oc3cccc(-c4cnc([C@@H]5CCCN5C(=O)[C@@H](c5ccccc5)N(C)C)[nH]4)c3)cc2)[nH]1)c1ccccc1 [Example 43]
CC50 (Cytotoxicity (Huh-7)): 0.7 µM
EC50 (HCV replicon): 0.114 nM

CCN(CC)[C@@H](C(=O)N1CCC[C@H]1c1nc(-c2cccc(Oc3ccc(-c4cnc([C@@H]5CCCN5C(=O)[C@@H](c5ccccc5)N(CC)CC)[nH]4)cc3)c2)c[nH]1)c1ccccc1 [Example 44]
CC50 (Cytotoxicity (Huh-7)): 0.78 µM
EC50 (HCV replicon): 0.12 nM

O=C(C(c1ccccc1)n1ccnc1)N1CCC[C@H]1c1nc(-c2cccc(Oc3ccc(-c4cnc([C@@H]5CCCN5C(=O)C(c5ccccc5)n5ccnc5)[nH]4)cc3)c2)c[nH]1 (stereo partly shown) [Example 35]
CC50 (Cytotoxicity (Huh-7)): > 31.5 µM
EC50 (HCV replicon): 4.72 nM

COc1cccc(CCC(=O)N2CCC[C@H]2c2nc(-c3cccc(Oc4ccc(-c5cnc([C@@H]6CCCN6C(=O)CCc6cccc(OC)c6)[nH]5)cc4)c3)c[nH]2)c1 [Example 27]
CC50 (Cytotoxicity (Huh-7)): > 31.5 µM
EC50 (HCV replicon): 3530 nM

O=C([C@H]1CCCO1)N1CCC[C@H]1c1nc(-c2cccc(Oc3ccc(-c4cnc([C@@H]5CCCN5C(=O)[C@H]5CCCO5)[nH]4)cc3)c2)c[nH]1 [Example 22]
CC50 (Cytotoxicity (Huh-7)): > 31.5 µM
EC50 (HCV replicon): 1090 nM

COC(=O)N[C@H](C(=O)N1CCC[C@H]1c1nc(-c2cccc(Oc3ccc(-c4cnc([C@@H]5CCCN5C(=O)[C@@H](NC(=O)OC)C(C)C)[nH]4)cc3)c2)c[nH]1)C(C)C [Example 42]
CC50 (Cytotoxicity (Huh-7)): 18.6 µM
EC50 (HCV replicon): 0.0433 nM

COc1ccc(Oc2ccc(-c3c[nH]c([C@@H]4CCCN4C(=O)[C@@H](c4ccccc4)N(C)C)n3)cc2)cc1-c1c[nH]c([C@@H]2CCCN2C(=O)[C@@H](c2ccccc2)N(C)C)n1 [Example 47]
EC50 (HCV replicon): 0.705 nM

O=C(Cc1cccnc1)N1CCC[C@H]1c1nc(-c2cccc(Oc3ccc(-c4cnc([C@@H]5CCCN5C(=O)Cc5cccnc5)[nH]4)cc3)c2)c[nH]1 [Example 18]
CC50 (Cytotoxicity (Huh-7)): > 31.5 µM
EC50 (HCV replicon): 54.3 nM

O=C(CCc1cccnc1)N1CCC[C@H]1c1nc(-c2cccc(Oc3ccc(-c4cnc([C@@H]5CCCN5C(=O)CCc5cccnc5)[nH]4)cc3)c2)c[nH]1 [Example 29]
CC50 (Cytotoxicity (Huh-7)): > 31.5 µM
EC50 (HCV replicon): 3.98 nM

O=C(c1ccccn1)N1CCC[C@H]1c1nc(-c2cccc(Oc3ccc(-c4cnc([C@@H]5CCCN5C(=O)c5ccccn5)[nH]4)cc3)c2)c[nH]1 [Example 37]
CC50 (Cytotoxicity (Huh-7)): > 31.5 µM
EC50 (HCV replicon): 15400 nM

O=C(C(=O)N1CCC[C@H]1c1nc(-c2cccc(Oc3ccc(-c4cnc([C@@H]5CCCN5C(=O)C(=O)c5ccccc5)[nH]4)cc3)c2)c[nH]1)c1ccccc1 [Example 20]
CC50 (Cytotoxicity (Huh-7)): > 31.5 µM
EC50 (HCV replicon): 58.2 nM

COC(=O)N[C@H](C(=O)N1CCC[C@H]1c1ncc(-c2ccc(Oc3cccc(-c4cnc([C@@H]5CCCN5C(=O)[C@@H](NC(=O)OC)[C@@H](C)OC)[nH]4)c3)cc2)[nH]1)[C@@H](C)OC [Example 39]
CC50 (Cytotoxicity (Huh-7)): > 31.5 µM
EC50 (HCV replicon): 0.0794 nM

O=C(Cc1ccccc1)N1CCC[C@H]1c1nc(-c2cccc(Oc3ccc(-c4cnc([C@@H]5CCCN5C(=O)Cc5ccccc5)[nH]4)cc3)c2)c[nH]1 [Example 9, 2-phenyl-1-((S)-2-(5-(4-(3-(2-((S)-1-(2-phenylacetyl)pyrrolidin-2-yl)-1H-imidazol-4-yl)phenoxy)phenyl)-1H-imidazol-2-yl)pyrrolidin-1-yl)ethanone]
CC50 (Cytotoxicity (Huh-7)): > 31.5 µM
EC50 (HCV replicon): 77 nM

O=C(Cc1ccccc1OC(F)(F)F)N1CCC[C@H]1c1nc(-c2cccc(Oc3ccc(-c4cnc([C@@H]5CCCN5C(=O)Cc5ccccc5OC(F)(F)F)[nH]4)cc3)c2)c[nH]1 [Example 24]
CC50 (Cytotoxicity (Huh-7)): > 31.5 µM
EC50 (HCV replicon): 14.4 nM

O=C([C@@H](O)c1ccccc1)N1CCC[C@H]1c1nc(-c2cccc(Oc3ccc(-c4cnc([C@@H]5CCCN5C(=O)[C@@H](O)c5ccccc5)[nH]4)cc3)c2)c[nH]1 [Example 23]
CC50 (Cytotoxicity (Huh-7)): 3.66 µM
EC50 (HCV replicon): 60.8 nM

O=C(CCc1ccccc1F)N1CCC[C@H]1c1nc(-c2cccc(Oc3ccc(-c4cnc([C@@H]5CCCN5C(=O)CCc5ccccc5F)[nH]4)cc3)c2)c[nH]1 [Example 26]
CC50 (Cytotoxicity (Huh-7)): > 31.5 µM
EC50 (HCV replicon): 2310 nM

CC(C)C[C@@H](C(=O)N1CCC[C@H]1c1nc(-c2cccc(Oc3ccc(-c4cnc([C@@H]5CCCN5C(=O)[C@H](CC(C)C)N(C)C)[nH]4)cc3)c2)c[nH]1)N(C)C [Example 36]
CC50 (Cytotoxicity (Huh-7)): 7.76 µM
EC50 (HCV replicon): 3030 nM

O=C(CC1CCCCC1)N1CCC[C@H]1c1nc(-c2cccc(Oc3ccc(-c4cnc([C@@H]5CCCN5C(=O)CC5CCCCC5)[nH]4)cc3)c2)c[nH]1 [Example 28]
CC50 (Cytotoxicity (Huh-7)): > 31.5 µM
EC50 (HCV replicon): 5470 nM

Cc1cccc(CC(=O)N2CCC[C@H]2c2nc(-c3cccc(Oc4ccc(-c5cnc([C@@H]6CCCN6C(=O)Cc6cccc(C)c6)[nH]5)cc4)c3)c[nH]2)c1 [Example 11, 2-m-tolyl-1-((2S)-2-(5-(4-(3-(2-((S)-1-(2-m-tolylacetyl)pyrrolidin-2-yl)-1H-imidazol-4-yl)phenoxy)phenyl)-1H-imidazol-2-yl)pyrrolidin-1-yl)ethanone]
CC50 (Cytotoxicity (Huh-7)): > 31.5 µM
EC50 (HCV replicon): 6180 nM

O=C(CCS(=O)(=O)c1ccccc1)N1CCC[C@H]1c1nc(-c2cccc(Oc3ccc(-c4cnc([C@@H]5CCCN5C(=O)CCS(=O)(=O)c5ccccc5)[nH]4)cc3)c2)c[nH]1 [Example 21]
CC50 (Cytotoxicity (Huh-7)): > 31.5 µM
EC50 (HCV replicon): 3700 nM

Cc1nc(C(=O)N2CCC[C@H]2c2nc(-c3cccc(Oc4ccc(-c5cnc([C@@H]6CCCN6C(=O)c6nc(C)oc6C)[nH]5)cc4)c3)c[nH]2)c(C)o1 [Example 33]
CC50 (Cytotoxicity (Huh-7)): > 31.5 µM
EC50 (HCV replicon): 864 nM

CN(C)C(C(=O)N1CCC[C@H]1c1nc(-c2cccc(Oc3ccc(-c4cnc([C@@H]5CCCN5C(=O)C(c5ccc(Cl)cc5)N(C)C)[nH]4)cc3)c2)c[nH]1)c1ccc(Cl)cc1 (stereo partly shown) [Example 30]
CC50 (Cytotoxicity (Huh-7)): 4.6 µM
EC50 (HCV replicon): 3.62 nM

COC(=O)N[C@H](C(=O)N1CCC[C@H]1c1nc(-c2ccc(Oc3ccc(OC)c(-c4c[nH]c([C@@H]5CCCN5C(=O)[C@@H](NC(=O)OC)C(C)C)n4)c3)cc2)c[nH]1)C(C)C [Example 45]
CC50 (Cytotoxicity (Huh-7)): 1.66 µM
EC50 (HCV replicon): 62.7 nM
